Results on five compounds are retold here after patent US9980943B2, “Methods of treating muscular dystrophy” (BOARD OF REGENTS OF THE NEVADA SYSTEM OF HIGHER EDUCATION, …, priority 2013, dated 2018).

Common to all, as to type: cell-based, mouse
Test [1] has as its system β-galactosidase in CMV-LacZ C2C12 myotubes. In words: CMV-LacZ secondary screen in C2C12 myotubes (β-Gal stabilizing assay). The settings on record: for CMV-LACZ in Myotubes, value relative to DMSO: SU9516 analogs, C2C12 CMV-LacZ, N=2; for CMV-LACZ in Myotubes, signal relative to DMSO: C2C12 CMV-LacZ myotubes, fold relative to DMSO. The procedure, abridged: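 β-Gal level was the read-out, measured in a clonal C2C12 line expressing LacZ from a CMV promoter. Dose-response curves used six concentrations, 0.5 μM up to 40 μM, with duplicate points.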

Test [2] relates to β-galactosidase in CMV-LacZ C2C12 myoblasts. Briefly: CMV-LacZ secondary screen in C2C12 myoblasts (β-Gal stabilizing assay). Conditions: for CMV-LACZ in Myoblasts, value relative to DMSO: SU9516 analogs, C2C12 CMV-LacZ, N=2; for CMV-LACZ in Myoblasts (β-galactosidase activity relative to DMSO): CMV-LacZ C2C12 myoblasts. The essentials: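 A secondary screen identifies compounds that stabilize β-gal independently of the native promoter, using CMV-LacZ C2C12 cells. Curves span 0.5–40 μM at six levels, in duplicate.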

The subject of test [3] is α7 integrin (LacZ reporter in α7+/LacZ myotubes). In words: Myotube α7 integrin FDG assay (Burkin assay in myotubes, 96-well). Conditions: for Burkin Assay in Myotubes, value relative to DMSO: SU9516 analogs, 96-well, N=3-6.
Test [4] deals with α7 integrin (LacZ reporter in α7βgal+/− myoblasts). Briefly: Myoblast α7+/LacZ integrin FDG assay (Burkin assay in myoblasts, 96-well). The settings on record: 96-well; for Burkin Assay in Myoblasts, value relative to DMSO: SU9516 analogs, N=3-6; for Burkin Assay in Myoblasts, signal relative to DMSO: α7+/LacZ myoblasts.

As for `Cc1[nH]c(/C=C2\C(=O)Nc3ccc(S(=O)(=O)Cc4c(Cl)cccc4Cl)cc32)c(C)c1C(=O)C1CCCN1CN1CCCC1` (stereo not drawn) [NCGC00242500-01], the “CMV-LACZ in Myotubes, value relative to DMSO” value in test [1] (0.5 uM) amounted to 1.2482; in test [1] (1 uM) it was 1.9682; in test [1] (5 uM), 2.2432; in test [1] (10 uM) it was 3.3039; in test [1] (20 uM), 5.2430; in test [1] (40 uM), 7.0800. Moreover, the “CMV-LACZ in Myoblasts, value relative to DMSO” value in test [2] (0.5 uM) is 1.1021; in test [2] (1 uM), 1.1446; in test [2] (5 uM), 1.6977; in test [2] (10 uM), 2.4909; in test [2] (20 uM) it was 0.3570; in test [2] (40 uM) it was 0.4237. Moreover, the “Burkin Assay in Myotubes, value relative to DMSO” value in test [3] (0.5 uM) is recorded as 0.9974; in test [3] (1 uM), 0.9391; in test [3] (5 uM) it was 0.9422; in test [3] (10 uM), 0.7534; in test [3] (20 uM), 0.652; in test [3] (40 uM) it was 0.2132. For the same compound, the “Burkin Assay in Myoblasts, value relative to DMSO” value was determined as 1.052 in test [4] (0.5 uM); 1.076 in test [4] (1 uM); 0.8704 in test [4] (5 uM); 0.5879 in test [4] (10 uM); 0.01841 in test [4] (20 uM); 0.01945 in test [4] (40 uM).
As for `CC(C)c1ccc(NC(=O)CN2C(=O)c3ccccc3S2(=O)=O)cc1` [MLS001229477-01], the “CMV-LACZ in Myotubes, signal relative to DMSO” value in test [1] (0.5 uM) is 1.0126; in test [1] (1 uM) it was 1.1095; in test [1] (5 uM) it was 0.9250; in test [1] (10 uM), 0.9587; in test [1] (20 uM), 0.9622; in test [1] (40 uM), 0.9611. For the same compound, the “CMV-LACZ in Myoblasts (β-galactosidase activity relative to DMSO)” value in test [2] (0.5 uM) amounted to 1.0283; in test [2] (1 uM), 1.1345; in test [2] (5 uM) it was 1.1078; in test [2] (10 uM), 1.1311; in test [2] (20 uM), 1.0674; in test [2] (40 uM), 0.8800. Besides, the “Burkin Assay in Myotubes, α7 integrin LacZ reporter signal relative to DMSO” value in test [3] (0.5 uM) is reported as 0.8015; in test [3] (1 uM), 0.9368; in test [3] (5 uM) it was 0.9702; in test [3] (10 uM) it was 0.9015; in test [3] (20 uM), 0.8376; in test [3] (40 uM) it was 0.8339. The “Burkin Assay in Myoblasts, signal relative to DMSO” value in test [4] (0.5 uM) is recorded as 0.8703; in test [4] (1 uM), 0.8296; in test [4] (5 uM), 1.367; in test [4] (10 uM), 0.9454; in test [4] (20 uM), 0.9634; in test [4] (40 uM), 0.9019.
Take `O=C(CSc1nnc2c(n1)[nH]c1ccccc12)NCc1ccccc1F` [MLS001225512-01]: the “CMV-LACZ in Myotubes, signal relative to DMSO” value amounted to 1.0162 in test [1] (0.5 uM); 1.0381 in test [1] (1 uM); 0.9459 in test [1] (5 uM); 1.0077 in test [1] (10 uM); 1.2482 in test [1] (20 uM); 0.8871 in test [1] (40 uM). For the same compound, the “CMV-LACZ in Myoblasts (β-galactosidase activity relative to DMSO)” value amounted to 0.9597 in test [2] (0.5 uM); 1.0843 in test [2] (1 uM); 1.1655 in test [2] (5 uM); 1.4266 in test [2] (10 uM); 0.8237 in test [2] (20 uM); 1.0111 in test [2] (40 uM). For the same compound, the “Burkin Assay in Myotubes, α7 integrin LacZ reporter signal relative to DMSO” value in test [3] (0.5 uM) was 0.929; in test [3] (1 uM), 1.059; in test [3] (5 uM), 0.9799; in test [3] (10 uM) it was 0.8235; in test [3] (20 uM), 0.8431; in test [3] (40 uM), 0.7401. In addition, the “Burkin Assay in Myoblasts, signal relative to DMSO” value in test [4] (0.5 uM) was 1.1596; in test [4] (1 uM), 0.9131; in test [4] (5 uM) it was 1.173; in test [4] (10 uM) it was 0.8832; in test [4] (20 uM) it was 1.108; in test [4] (40 uM), 1.284.
For the compound `O=c1c2cc(-c3ccccc3)sc2nc2n1N=C(c1ccccc1)CS2` [MLS000858981-01], the “CMV-LACZ in Myotubes, signal relative to DMSO” value in test [1] (0.5 uM) is 1.0257; in test [1] (1 uM) it was 0.8419; in test [1] (5 uM) it was 1.0786; in test [1] (10 uM), 0.9781; in test [1] (20 uM) it was 1.0421; in test [1] (40 uM), 1.0000. Besides, the “CMV-LACZ in Myoblasts (β-galactosidase activity relative to DMSO)” value in test [2] (0.5 uM) worked out at 0.9229; in test [2] (1 uM) it was 0.9696; in test [2] (5 uM), 1.1687; in test [2] (10 uM), 0.9009; in test [2] (20 uM) it was 0.9985; in test [2] (40 uM) it was 0.9696. Also, the “Burkin Assay in Myotubes, α7 integrin LacZ reporter signal relative to DMSO” value is listed as 1.027 in test [3] (0.5 uM); 0.8837 in test [3] (1 uM); 1.055 in test [3] (5 uM); 0.8922 in test [3] (10 uM); 0.8526 in test [3] (20 uM); 0.8173 in test [3] (40 uM). Also, the “Burkin Assay in Myoblasts, signal relative to DMSO” value in test [4] (0.5 uM) stood at 0.953; in test [4] (1 uM), 0.999; in test [4] (5 uM) it was 1.186; in test [4] (10 uM), 1.01; in test [4] (20 uM), 1.0113; in test [4] (40 uM) it was 1.005.
Turning to `O=C(Cn1nc(-c2ccc(Cl)cc2)ccc1=O)N1CCC2(CC1)OCCO2` [MLS000689492-01], the “CMV-LACZ in Myotubes, signal relative to DMSO” value in test [1] (0.5 uM) was 1.0853; in test [1] (1 uM), 1.2400; in test [1] (5 uM), 1.0504; in test [1] (10 uM), 1.0940; in test [1] (20 uM), 1.0444; in test [1] (40 uM), 0.9267. Besides, the “CMV-LACZ in Myoblasts (β-galactosidase activity relative to DMSO)” value in test [2] (0.5 uM) is recorded as 0.9363; in test [2] (1 uM), 1.0252; in test [2] (5 uM), 1.0863; in test [2] (10 uM), 0.8653; in test [2] (20 uM) it was 1.0141; in test [2] (40 uM), 1.0026. Moreover, the “Burkin Assay in Myotubes, α7 integrin LacZ reporter signal relative to DMSO” value in test [3] (0.5 uM) worked out at 1.156; in test [3] (1 uM) it was 1.138; in test [3] (5 uM) it was 0.9311; in test [3] (10 uM), 0.9292; in test [3] (20 uM), 0.8836; in test [3] (40 uM), 0.7544. Further, the “Burkin Assay in Myoblasts, signal relative to DMSO” value in test [4] (0.5 uM) came to 1.073; in test [4] (1 uM) it was 0.908; in test [4] (5 uM) it was 0.94; in test [4] (10 uM), 0.9431; in test [4] (20 uM), 1.083; in test [4] (40 uM), 0.9652.
